{
  "source": "paper PMC10364322",
  "about": "“Evaluation of chronic drug-induced electrophysiological and cytotoxic effects using human-induced pluripotent stem cell-derived cardiomyocytes (hiPSC-CMs)” (Frontiers in Pharmacology, 2023)",
  "test_system": "hiPSC-CMs (iCell-Cardiomyocytes^2)",
  "in_short": "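Spontaneous field potentials and impedance recorded by MEA at 37°C, 5% CO2 in hiPSC-CM monolayers (50 K/well, fibronectin-coated), 5-min baseline before compound; final DMSO 0.1%. Values are percent change from baseline, mean ± SD, compared with DMSO by Wilcoxon-Mann Whitney, interpreted against DMSO tolerance intervals.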",
  "note": "Read-outs that look alike come from different tables or passages of the source.",
  "data": [
    {"smiles": "COc1nc(N)nc2c1ncn2[C@@H]1O[C@H](COP(=O)(N[C@@H](C)C(=O)OCC(C)(C)C)Oc2cccc3ccccc23)[C@@H](O)[C@@]1(C)O", "note": "(stereo partly drawn) [BMS-986094]", "values": [
      {"measurement": "BR (beating rate), % change from baseline", "setting": "0.3 µM, 2h", "value": "5±3", "unit": "%"},
      {"measurement": "Beating below threshold, number of observations/total well numbers", "setting": "0.3 µM, 2h", "value": "0/5"},
      {"measurement": "Cessation of beating, number of observations/total well numbers", "setting": "0.3 µM, 2h", "value": "0/5"},
      {"measurement": "EAD, number of observations/total well numbers", "setting": "0.3 µM, 2h", "value": "0/5"},
      {"measurement": "FPD (field-potential duration), % change from baseline", "setting": "0.3 µM, 2h", "value": "0.5±1", "unit": "%"},
      {"measurement": "FPDc (field-potential duration corrected by beat-rate), % change from baseline", "setting": "0.3 µM, 2h", "value": "2.1±1.1", "unit": "%"},
      {"measurement": "Flat T-wave-like, number of observations/total well numbers", "setting": "0.3 µM, 2h", "value": "0/5"},
      {"measurement": "BR (beating rate), % change from baseline", "setting": "0.3 µM, 24h", "value": "8±3", "unit": "%"},
      {"measurement": "Beating below threshold, number of observations/total well numbers", "setting": "0.3 µM, 24h", "value": "0/5"},
      {"measurement": "Cessation of beating, number of observations/total well numbers", "setting": "0.3 µM, 24h", "value": "0/5"},
      {"measurement": "EAD, number of observations/total well numbers", "setting": "0.3 µM, 24h", "value": "0/5"},
      {"measurement": "FPD (field-potential duration), % change from baseline", "setting": "0.3 µM, 24h", "value": "-5.3±4.1", "unit": "%"},
      {"measurement": "FPDc (field-potential duration corrected by beat-rate), % change from baseline", "setting": "0.3 µM, 24h", "value": "-2.7±3.8", "unit": "%"},
      {"measurement": "Flat T-wave-like, number of observations/total well numbers", "setting": "0.3 µM, 24h", "value": "0/5"},
      {"measurement": "BR (beating rate), % change from baseline", "setting": "0.3 µM, 48h", "value": "14±5", "unit": "%"},
      {"measurement": "Beating below threshold, number of observations/total well numbers", "setting": "0.3 µM, 48h", "value": "0/5"},
      {"measurement": "Cessation of beating, number of observations/total well numbers", "setting": "0.3 µM, 48h", "value": "0/5"},
      {"measurement": "EAD, number of observations/total well numbers", "setting": "0.3 µM, 48h", "value": "0/5"},
      {"measurement": "FPD (field-potential duration), % change from baseline", "setting": "0.3 µM, 48h", "value": "-12.4±4.7", "unit": "%"},
      {"measurement": "FPDc (field-potential duration corrected by beat-rate), % change from baseline", "setting": "0.3 µM, 48h", "value": "-8.4±4.1", "unit": "%"},
      {"measurement": "Flat T-wave-like, number of observations/total well numbers", "setting": "0.3 µM, 48h", "value": "0/5"},
      {"measurement": "BR (beating rate), % change from baseline", "setting": "0.3 µM, 72h", "value": "22±3", "unit": "%"},
      {"measurement": "Beating below threshold, number of observations/total well numbers", "setting": "0.3 µM, 72h", "value": "0/5"},
      {"measurement": "Cessation of beating, number of observations/total well numbers", "setting": "0.3 µM, 72h", "value": "0/5"},
      {"measurement": "EAD, number of observations/total well numbers", "setting": "0.3 µM, 72h", "value": "0/5"},
      {"measurement": "FPD (field-potential duration), % change from baseline", "setting": "0.3 µM, 72h", "value": "-17.3±3.6", "unit": "%"},
      {"measurement": "FPDc (field-potential duration corrected by beat-rate), % change from baseline", "setting": "0.3 µM, 72h", "value": "-11.6±3.5", "unit": "%"},
      {"measurement": "Flat T-wave-like, number of observations/total well numbers", "setting": "0.3 µM, 72h", "value": "0/5"},
      {"measurement": "BR (beating rate), % change from baseline", "setting": "0.3 µM, 96h", "value": "30±11", "unit": "%"},
      {"measurement": "Beating below threshold, number of observations/total well numbers", "setting": "0.3 µM, 96h", "value": "0/5"},
      {"measurement": "Cessation of beating, number of observations/total well numbers", "setting": "0.3 µM, 96h", "value": "0/5"},
      {"measurement": "EAD, number of observations/total well numbers", "setting": "0.3 µM, 96h", "value": "0/5"},
      {"measurement": "FPD (field-potential duration), % change from baseline", "setting": "0.3 µM, 96h", "value": "-20.4±2.9", "unit": "%"},
      {"measurement": "FPDc (field-potential duration corrected by beat-rate), % change from baseline", "setting": "0.3 µM, 96h", "value": "-14.3±1.9", "unit": "%"},
      {"measurement": "Flat T-wave-like, number of observations/total well numbers", "setting": "0.3 µM, 96h", "value": "1/5"},
      {"measurement": "BR (beating rate), % change from baseline", "setting": "1 µM, 2h", "value": "6±2", "unit": "%"},
      {"measurement": "Beating below threshold, number of observations/total well numbers", "setting": "1 µM, 2h", "value": "0/5"},
      {"measurement": "Cessation of beating, number of observations/total well numbers", "setting": "1 µM, 2h", "value": "0/5"},
      {"measurement": "EAD, number of observations/total well numbers", "setting": "1 µM, 2h", "value": "0/5"},
      {"measurement": "FPD (field-potential duration), % change from baseline", "setting": "1 µM, 2h", "value": "-3.6±2.3", "unit": "%"},
      {"measurement": "FPDc (field-potential duration corrected by beat-rate), % change from baseline", "setting": "1 µM, 2h", "value": "-1.8±2.1", "unit": "%"},
      {"measurement": "Flat T-wave-like, number of observations/total well numbers", "setting": "1 µM, 2h", "value": "1/5"},
      {"measurement": "BR (beating rate), % change from baseline", "setting": "1 µM, 24h", "value": "17±5", "unit": "%"},
      {"measurement": "Beating below threshold, number of observations/total well numbers", "setting": "1 µM, 24h", "value": "0/5"},
      {"measurement": "Cessation of beating, number of observations/total well numbers", "setting": "1 µM, 24h", "value": "0/5"},
      {"measurement": "EAD, number of observations/total well numbers", "setting": "1 µM, 24h", "value": "0/5"},
      {"measurement": "FPD (field-potential duration), % change from baseline", "setting": "1 µM, 24h", "value": "-10.7±2.3", "unit": "%"},
      {"measurement": "FPDc (field-potential duration corrected by beat-rate), % change from baseline", "setting": "1 µM, 24h", "value": "-6±2.7", "unit": "%"},
      {"measurement": "Flat T-wave-like, number of observations/total well numbers", "setting": "1 µM, 24h", "value": "0/5"},
      {"measurement": "BR (beating rate), % change from baseline", "setting": "1 µM, 48h", "value": "12±3", "unit": "%"},
      {"measurement": "Beating below threshold, number of observations/total well numbers", "setting": "1 µM, 48h", "value": "0/5"},
      {"measurement": "Cessation of beating, number of observations/total well numbers", "setting": "1 µM, 48h", "value": "0/5"},
      {"measurement": "EAD, number of observations/total well numbers", "setting": "1 µM, 48h", "value": "0/5"},
      {"measurement": "FPD (field-potential duration), % change from baseline", "setting": "1 µM, 48h", "value": "-5.8±3", "unit": "%"},
      {"measurement": "FPDc (field-potential duration corrected by beat-rate), % change from baseline", "setting": "1 µM, 48h", "value": "-2.5±2.1", "unit": "%"},
      {"measurement": "Flat T-wave-like, number of observations/total well numbers", "setting": "1 µM, 48h", "value": "3/5"},
      {"measurement": "BR (beating rate), % change from baseline", "setting": "1 µM, 72h", "value": "17±6", "unit": "%"},
      {"measurement": "Beating below threshold, number of observations/total well numbers", "setting": "1 µM, 72h", "value": "0/5"},
      {"measurement": "Cessation of beating, number of observations/total well numbers", "setting": "1 µM, 72h", "value": "0/5"},
      {"measurement": "EAD, number of observations/total well numbers", "setting": "1 µM, 72h", "value": "0/5"},
      {"measurement": "FPD (field-potential duration), % change from baseline", "setting": "1 µM, 72h", "value": "-7.5±0", "unit": "%"},
      {"measurement": "FPDc (field-potential duration corrected by beat-rate), % change from baseline", "setting": "1 µM, 72h", "value": "-2.3±0", "unit": "%"},
      {"measurement": "Flat T-wave-like, number of observations/total well numbers", "setting": "1 µM, 72h", "value": "4/5"},
      {"measurement": "BR (beating rate), % change from baseline", "setting": "1 µM, 96h", "value": "14±8", "unit": "%"},
      {"measurement": "Beating below threshold, number of observations/total well numbers", "setting": "1 µM, 96h", "value": "0/5"},
      {"measurement": "Cessation of beating, number of observations/total well numbers", "setting": "1 µM, 96h", "value": "0/5"}
    ]}
  ]
}
